Data set [1] can be described thus: Liquid crystallinity: phase transition temperature measured using a polarization microscope. Type of data set: physicochemical. Here is the method: A phase transition temperature of the prepared liquid crystal composition was measured using a polarization microscope.
The nature of data set [2]: Solubility: presence or absence of precipitation over time in cyclopentanone/methyl ethyl ketone. It is filed as physicochemical. The conditions noted are these: 50 mg, cyclopentanone/methyl ethyl ketone 3/1 by weight, solid content 30 wt %, dissolved at 60° C., cooled to room temperature (25° C.), visual precipitation over time. Here is the method:
50 mg of each of the liquid crystal compositions prepared in a 1.5 mL sample bottle was weighed, and a solvent (mixture of cyclopentanone/methyl ethyl ketone at a weight ratio of 3/1) was added thereto until the solid content was 30 wt % ([…]).
Next, the mixture was heated to 60° C. and stirred to be dissolved, cooled to room temperature (25° C.), and the presence or absence of precipitation was visually confirmed over time after cooling and evaluated according to the following standard.
C: precipitation occurred within 24 hours at room temperature.

Here are results for one compound from US20250243407A1, “LIQUID CRYSTAL COMPOSITION, OPTICALLY ANISOTROPIC FILM, OPTICAL FILM, POLARIZING PLATE, IMAGE DISPLAY APPARATUS, AND POLYMERIZABLE COMPOUND” (FUJIFILM Corporation, priority 2022, published 2025).

`C=CC(=O)OCC(C)(C)COC(=O)CCC(=O)OCCc1ccc(OC(=O)C2CCC(C(=O)Oc3c(C(C)(C)C)cc(OC(=O)C4CCC(C(=O)Oc5cc(C(C)(C)C)c(OC(=O)C6CCC(C(=O)Oc7ccc(CCOC(=O)CCC(=O)OCC(C)(C)COC(=O)C=C)cc7)CC6)c6c5SC(=C(C#N)C#N)S6)CC4)c4c3SC(=C(C#N)C#N)S4)CC2)cc1` (centres unmarked) [Comparative Example 1]: in data set [1], the “Liquid crystallinity: phase transition temperature between isotropic liquid (Iso) and crystal (Cr)” value was “Iso 178 Cr ° C”. In addition, the Solubility entry in data set [2] was “C (precipitation occurred within 24 hours at room temperature)”.
